Source: the kinase profiling compilation of Christmann-Franck et al. (2016)

Key:
Test in all cases: KINOMEscan competition binding
Details in all cases: compound 10.0 µM
PAK3 (human) = PAK3 (human) (UniProt O75914)
MAPK3 (human) = MAPK3 (human) (UniProt P27361)
TNK2 (human) = TNK2 (human) (UniProt Q07912)
MAP3K6 (human) = MAP3K6 (human) (UniProt O95382)
CSNK1A1L (human) = CSNK1A1L (human) (UniProt Q8N752)
NTRK3 (human) = NTRK3 (human) (UniProt Q16288)
LIMK2 (human) = LIMK2 (human) (UniProt P53671)
LIMK1 (human) = LIMK1 (human) (UniProt P53667)
MARK3 (human) = MARK3 (human) (UniProt P27448)
RPS6KA4 KD1 (human) = RPS6KA4 KD1 (human) (UniProt O75676)
SNRK (human) = SNRK (human) (UniProt Q9NRH2)
GRK7 (human) = GRK7 (human) (UniProt Q8WTQ7)
FGFR3 (human) = FGFR3 (human) (UniProt P22607)
HCK (human) = HCK (human) (UniProt P08631)
EPHA8 (human) = EPHA8 (human) (UniProt P29322)
CDC42BPA (human) = CDC42BPA (human) (UniProt Q5VT25)
MAPK14 (human) = MAPK14 (human) (UniProt Q16539)
BRSK1 (human) = BRSK1 (human) (UniProt Q8TDC3)
SRPK2 (human) = SRPK2 (human) (UniProt P78362)
MAP4K3 (human) = MAP4K3 (human) (UniProt Q8IVH8)
BLK (human) = BLK (human) (UniProt P51451)
MAST1 (human) = MAST1 (human) (UniProt Q9Y2H9)
PIM2 (human) = PIM2 (human) (UniProt Q9P1W9)
[1] = target: TYK2 JH1 catalytic (human) (UniProt P29597)
DAPK3 (human) = DAPK3 (human) (UniProt O43293)
CAMK2B (human) = CAMK2B (human) (UniProt Q13554)
[2] = tested on: EIF2AK4 KD2 (human), Q9P2K8 [S808G]
PIP4K2C (human) = PIP4K2C (human) (UniProt Q8TBX8)
MAP3K4 (human) = MAP3K4 (human) (UniProt Q9Y6R4)
SRPK1 (human) = SRPK1 (human) (UniProt Q96SB4)
CaMK1 (human) = CaMK1 (human) (UniProt Q14012)
MAP2K7 (human) = MAP2K7 (human) (UniProt O14733)
MAP3K10 (human) = MAP3K10 (human) (UniProt Q02779)
GAK (human) = GAK (human) (UniProt O14976)
PHKG2 (human) = PHKG2 (human) (UniProt P15735)
CDK14 (human) = CDK14 (human) (UniProt O94921)
MAP4K1 (human) = MAP4K1 (human) (UniProt Q92918)
YES1 (human) = YES1 (human) (UniProt P07947)
BTK (human) = BTK (human) (UniProt Q06187)
CSNK1A1 (human) = CSNK1A1 (human) (UniProt P48729)

NTRK3 (human), sequence (Q16288 whole entry, looked up): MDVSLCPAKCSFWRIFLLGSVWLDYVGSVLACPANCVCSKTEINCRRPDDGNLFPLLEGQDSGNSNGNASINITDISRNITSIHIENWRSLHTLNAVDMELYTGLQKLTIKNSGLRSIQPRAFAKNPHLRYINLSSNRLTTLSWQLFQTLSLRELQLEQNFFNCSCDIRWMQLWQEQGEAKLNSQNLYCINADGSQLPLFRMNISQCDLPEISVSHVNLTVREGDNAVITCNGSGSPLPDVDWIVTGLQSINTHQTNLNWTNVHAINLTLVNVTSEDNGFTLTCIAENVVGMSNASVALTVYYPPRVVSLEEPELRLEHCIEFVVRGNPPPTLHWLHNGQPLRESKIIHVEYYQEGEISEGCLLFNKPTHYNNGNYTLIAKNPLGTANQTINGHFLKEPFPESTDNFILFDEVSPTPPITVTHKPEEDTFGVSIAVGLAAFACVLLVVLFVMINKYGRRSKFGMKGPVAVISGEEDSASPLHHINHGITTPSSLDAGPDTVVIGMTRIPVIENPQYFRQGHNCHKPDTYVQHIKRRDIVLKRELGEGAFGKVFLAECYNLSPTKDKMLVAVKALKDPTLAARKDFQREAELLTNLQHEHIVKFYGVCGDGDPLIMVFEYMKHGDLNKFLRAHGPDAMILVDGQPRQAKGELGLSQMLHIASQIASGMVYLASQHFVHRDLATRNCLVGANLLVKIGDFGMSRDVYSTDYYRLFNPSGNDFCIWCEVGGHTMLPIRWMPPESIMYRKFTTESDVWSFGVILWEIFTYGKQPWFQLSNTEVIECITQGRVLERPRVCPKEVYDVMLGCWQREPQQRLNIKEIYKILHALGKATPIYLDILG
MAPK3 (human), sequence (P27361 whole entry, looked up): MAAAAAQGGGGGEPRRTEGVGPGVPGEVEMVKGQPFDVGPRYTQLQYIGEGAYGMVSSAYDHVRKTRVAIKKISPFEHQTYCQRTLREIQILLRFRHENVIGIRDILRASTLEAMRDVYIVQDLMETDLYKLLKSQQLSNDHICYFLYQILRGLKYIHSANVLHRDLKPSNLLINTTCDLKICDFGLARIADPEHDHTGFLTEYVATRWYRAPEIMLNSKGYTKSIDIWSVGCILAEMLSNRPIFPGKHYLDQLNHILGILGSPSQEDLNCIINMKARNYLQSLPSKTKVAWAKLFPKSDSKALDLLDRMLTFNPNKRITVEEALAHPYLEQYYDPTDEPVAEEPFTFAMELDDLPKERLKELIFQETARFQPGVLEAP
PAK3 (human), sequence (O75914 whole entry, looked up): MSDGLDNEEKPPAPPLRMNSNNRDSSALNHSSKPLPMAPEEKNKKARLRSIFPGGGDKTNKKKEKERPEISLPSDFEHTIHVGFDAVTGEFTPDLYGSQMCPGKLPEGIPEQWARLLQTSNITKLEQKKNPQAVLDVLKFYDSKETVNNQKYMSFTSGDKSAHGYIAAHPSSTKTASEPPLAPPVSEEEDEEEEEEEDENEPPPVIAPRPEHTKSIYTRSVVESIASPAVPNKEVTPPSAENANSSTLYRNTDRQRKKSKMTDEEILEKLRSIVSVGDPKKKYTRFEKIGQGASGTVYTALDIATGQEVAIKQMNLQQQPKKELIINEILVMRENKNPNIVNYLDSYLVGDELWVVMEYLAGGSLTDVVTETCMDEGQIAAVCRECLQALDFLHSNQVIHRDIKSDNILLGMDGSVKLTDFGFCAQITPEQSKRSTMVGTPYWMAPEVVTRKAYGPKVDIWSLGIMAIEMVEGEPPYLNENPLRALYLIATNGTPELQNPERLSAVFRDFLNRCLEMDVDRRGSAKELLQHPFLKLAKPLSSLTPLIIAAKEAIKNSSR
CaMK1 (human), sequence (Q14012 whole entry, looked up): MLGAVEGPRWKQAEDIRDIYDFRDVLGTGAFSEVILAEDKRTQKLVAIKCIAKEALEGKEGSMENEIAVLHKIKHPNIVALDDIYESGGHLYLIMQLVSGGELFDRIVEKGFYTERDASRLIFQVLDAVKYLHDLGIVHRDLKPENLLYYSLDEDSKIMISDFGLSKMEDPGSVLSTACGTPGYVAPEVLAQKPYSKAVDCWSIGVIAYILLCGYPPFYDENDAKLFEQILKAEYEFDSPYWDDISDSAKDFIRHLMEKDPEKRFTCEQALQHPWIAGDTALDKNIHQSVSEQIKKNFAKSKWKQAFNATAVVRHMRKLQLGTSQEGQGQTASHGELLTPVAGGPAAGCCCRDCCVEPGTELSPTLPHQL
SRPK1 (human), sequence (Q96SB4 whole entry, looked up): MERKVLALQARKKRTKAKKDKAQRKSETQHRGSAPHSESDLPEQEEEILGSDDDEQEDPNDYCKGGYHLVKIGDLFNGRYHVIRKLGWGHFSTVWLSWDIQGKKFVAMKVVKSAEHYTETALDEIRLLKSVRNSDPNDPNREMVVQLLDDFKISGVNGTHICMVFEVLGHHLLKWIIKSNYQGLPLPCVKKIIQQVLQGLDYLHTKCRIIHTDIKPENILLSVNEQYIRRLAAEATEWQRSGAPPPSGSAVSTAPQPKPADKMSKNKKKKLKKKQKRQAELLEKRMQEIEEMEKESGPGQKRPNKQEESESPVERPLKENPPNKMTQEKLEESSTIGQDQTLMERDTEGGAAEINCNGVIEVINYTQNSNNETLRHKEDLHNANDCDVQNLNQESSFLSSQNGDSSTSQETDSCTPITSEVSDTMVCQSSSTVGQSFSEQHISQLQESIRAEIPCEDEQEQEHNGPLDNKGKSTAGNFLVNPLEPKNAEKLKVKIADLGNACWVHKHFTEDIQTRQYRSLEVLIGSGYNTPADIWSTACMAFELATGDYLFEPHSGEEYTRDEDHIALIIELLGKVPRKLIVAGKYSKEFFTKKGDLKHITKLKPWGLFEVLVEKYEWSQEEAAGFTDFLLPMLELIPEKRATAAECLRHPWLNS
GAK (human), sequence (O14976 whole entry, looked up): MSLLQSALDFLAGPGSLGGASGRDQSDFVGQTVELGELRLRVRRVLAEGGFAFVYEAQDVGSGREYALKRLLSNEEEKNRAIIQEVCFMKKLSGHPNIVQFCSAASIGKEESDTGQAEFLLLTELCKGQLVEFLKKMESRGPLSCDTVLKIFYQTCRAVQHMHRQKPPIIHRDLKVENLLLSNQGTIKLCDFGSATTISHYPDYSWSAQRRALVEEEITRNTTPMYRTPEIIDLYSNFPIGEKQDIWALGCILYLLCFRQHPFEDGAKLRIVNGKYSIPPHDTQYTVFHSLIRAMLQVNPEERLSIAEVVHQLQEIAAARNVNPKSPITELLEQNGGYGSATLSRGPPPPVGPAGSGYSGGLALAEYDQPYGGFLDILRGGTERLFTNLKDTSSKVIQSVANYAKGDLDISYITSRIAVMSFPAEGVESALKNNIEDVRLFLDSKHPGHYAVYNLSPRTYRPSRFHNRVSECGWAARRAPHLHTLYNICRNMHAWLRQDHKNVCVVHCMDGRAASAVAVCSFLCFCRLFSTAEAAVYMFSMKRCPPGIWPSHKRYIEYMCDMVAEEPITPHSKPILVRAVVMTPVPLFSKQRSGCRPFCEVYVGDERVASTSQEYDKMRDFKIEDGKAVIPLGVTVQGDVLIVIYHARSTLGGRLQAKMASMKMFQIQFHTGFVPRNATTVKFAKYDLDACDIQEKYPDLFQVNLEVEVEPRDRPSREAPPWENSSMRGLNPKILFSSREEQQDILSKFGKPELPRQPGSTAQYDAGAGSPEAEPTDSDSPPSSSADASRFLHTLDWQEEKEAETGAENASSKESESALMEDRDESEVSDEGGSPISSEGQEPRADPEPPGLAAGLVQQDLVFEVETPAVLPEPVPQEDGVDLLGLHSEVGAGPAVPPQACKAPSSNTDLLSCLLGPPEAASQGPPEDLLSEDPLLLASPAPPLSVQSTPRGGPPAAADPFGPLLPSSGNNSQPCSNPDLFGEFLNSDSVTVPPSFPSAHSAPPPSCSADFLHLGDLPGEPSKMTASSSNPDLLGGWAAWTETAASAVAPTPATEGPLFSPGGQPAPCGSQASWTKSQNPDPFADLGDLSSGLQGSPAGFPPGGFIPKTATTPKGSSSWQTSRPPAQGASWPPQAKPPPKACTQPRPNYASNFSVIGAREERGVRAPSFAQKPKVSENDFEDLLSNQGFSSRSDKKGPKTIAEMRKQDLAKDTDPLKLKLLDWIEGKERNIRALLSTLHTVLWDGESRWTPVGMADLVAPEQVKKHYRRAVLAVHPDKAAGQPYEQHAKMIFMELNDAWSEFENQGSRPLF
LIMK2 (human), sequence (P53671 whole entry, looked up): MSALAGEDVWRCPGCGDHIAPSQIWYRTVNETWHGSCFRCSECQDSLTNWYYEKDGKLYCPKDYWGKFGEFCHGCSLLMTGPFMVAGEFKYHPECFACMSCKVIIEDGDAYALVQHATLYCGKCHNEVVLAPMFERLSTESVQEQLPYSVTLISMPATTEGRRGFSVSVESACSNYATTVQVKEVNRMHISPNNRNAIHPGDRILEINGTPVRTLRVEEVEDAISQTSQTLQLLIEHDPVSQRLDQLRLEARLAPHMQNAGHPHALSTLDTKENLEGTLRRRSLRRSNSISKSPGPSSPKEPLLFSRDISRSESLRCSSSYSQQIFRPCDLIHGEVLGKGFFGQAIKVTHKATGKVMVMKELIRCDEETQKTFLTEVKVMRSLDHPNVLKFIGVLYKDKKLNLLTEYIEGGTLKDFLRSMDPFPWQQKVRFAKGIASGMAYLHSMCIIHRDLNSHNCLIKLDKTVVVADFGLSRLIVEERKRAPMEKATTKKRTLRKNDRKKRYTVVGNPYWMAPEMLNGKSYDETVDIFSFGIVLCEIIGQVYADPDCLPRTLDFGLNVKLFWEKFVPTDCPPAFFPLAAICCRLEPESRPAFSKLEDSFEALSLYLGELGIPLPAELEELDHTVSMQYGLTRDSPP

SMILES | kinase still bound, per cent of control (PAK3 (human)) | kinase still bound, per cent of control (MAPK3 (human)) | kinase still bound, per cent of control (TNK2 (human)) | kinase still bound, per cent of control (MAP3K6 (human)) | kinase still bound, per cent of control (CSNK1A1L (human)) | kinase still bound, per cent of control (NTRK3 (human)) | kinase still bound, per cent of control (LIMK2 (human)) | kinase still bound, per cent of control (LIMK1 (human)) | kinase still bound, per cent of control (MARK3 (human)) | kinase still bound, per cent of control (RPS6KA4 KD1 (human)) | kinase still bound, per cent of control (SNRK (human)) | kinase still bound, per cent of control (GRK7 (human)) | kinase still bound, per cent of control (FGFR3 (human)) | kinase still bound, per cent of control (HCK (human)) | kinase still bound, per cent of control (EPHA8 (human)) | kinase still bound, per cent of control (CDC42BPA (human)) | kinase still bound, per cent of control (MAPK14 (human)) | kinase still bound, per cent of control (BRSK1 (human)) | kinase still bound, per cent of control (SRPK2 (human)) | kinase still bound, per cent of control (MAP4K3 (human)) | other results
CCC(=O)N1CCN(c2ccc(-n3c(=O)ccc4cnc5ccc(-c6cnc7ccccc7c6)cc5c43)cc2C(F)(F)F)CC1 | 100% | 91% | 51% | 100% | 81% | 100% | 4.8% | 15% | 100% | 100% | 60% | 100% | 42% | 77% | 71% | 0.65% | 90% | 78% | 100% | 1.9% | kinase still bound, per cent of control (BLK (human)): 75%; kinase still bound, per cent of control (MAST1 (human)): 93%; kinase still bound, per cent of control (PIM2 (human)): 62%; kinase still bound, per cent of control [1]: 70%; kinase still bound, per cent of control (DAPK3 (human)): 82%; kinase still bound, per cent of control (CAMK2B (human)): 100%; kinase still bound, per cent of control [2]: 99%; kinase still bound, per cent of control (PIP4K2C (human)): 58%; kinase still bound, per cent of control (MAP3K4 (human)): 47%; kinase still bound, per cent of control (SRPK1 (human)): 100%; kinase still bound, per cent of control (CaMK1 (human)): 50%; kinase still bound, per cent of control (MAP2K7 (human)): 100%; kinase still bound, per cent of control (MAP3K10 (human)): 99%; kinase still bound, per cent of control (GAK (human)): 57%; kinase still bound, per cent of control (PHKG2 (human)): 100%; kinase still bound, per cent of control (CDK14 (human)): 99%; kinase still bound, per cent of control (MAP4K1 (human)): 30%; kinase still bound, per cent of control (YES1 (human)): 74%
COc1cc(N2CCN(C)CC2)ccc1Nc1nc(N)c(C(=O)c2c(Cl)cccc2Cl)s1 | 94% | 100% | 97% | 100% | 100% | 100% | 94% | 74% | 100% | 100% | 82% | 100% | 99% | 100% | 73% | 100% | 94% | 91% | 100% | 100% | kinase still bound, per cent of control (BTK (human)): 100%; kinase still bound, per cent of control (MAST1 (human)): 24%; kinase still bound, per cent of control (PIM2 (human)): 100%; kinase still bound, per cent of control [1]: 90%; kinase still bound, per cent of control (DAPK3 (human)): 78%; kinase still bound, per cent of control (CAMK2B (human)): 20%; kinase still bound, per cent of control [2]: 100%; kinase still bound, per cent of control (PIP4K2C (human)): 46%; kinase still bound, per cent of control (MAP3K4 (human)): 100%; kinase still bound, per cent of control (SRPK1 (human)): 100%; kinase still bound, per cent of control (CaMK1 (human)): 0.75%; kinase still bound, per cent of control (MAP2K7 (human)): 100%; kinase still bound, per cent of control (MAP3K10 (human)): 100%; kinase still bound, per cent of control (GAK (human)): 73%; kinase still bound, per cent of control (PHKG2 (human)): 43%; kinase still bound, per cent of control (CDK14 (human)): 91%; kinase still bound, per cent of control (CSNK1A1 (human)): 84%; kinase still bound, per cent of control (MAP4K1 (human)): 90%
CCCS(=O)(=O)Nc1ccc(F)c(C(=O)c2c[nH]c3ncc(-c4ccc(Cl)cc4)cc23)c1F | 69% | 100% | 6.9% | 100% | 100% | 65% | 24% | 27% | 61% | 90% | 100% | 93% | 93% | 13% | 83% | 80% | 70% | 100% | 100% | 56% | kinase still bound, per cent of control (BTK (human)): 93%; kinase still bound, per cent of control (BLK (human)): 2.2%; kinase still bound, per cent of control (MAST1 (human)): 100%; kinase still bound, per cent of control (PIM2 (human)): 96%; kinase still bound, per cent of control [1]: 47%; kinase still bound, per cent of control (DAPK3 (human)): 95%; kinase still bound, per cent of control (CAMK2B (human)): 98%; kinase still bound, per cent of control [2]: 0.55%; kinase still bound, per cent of control (PIP4K2C (human)): 100%; kinase still bound, per cent of control (MAP3K4 (human)): 63%; kinase still bound, per cent of control (SRPK1 (human)): 92%; kinase still bound, per cent of control (CaMK1 (human)): 25%; kinase still bound, per cent of control (MAP3K10 (human)): 73%; kinase still bound, per cent of control (GAK (human)): 84%; kinase still bound, per cent of control (PHKG2 (human)): 100%; kinase still bound, per cent of control (CDK14 (human)): 100%; kinase still bound, per cent of control (CSNK1A1 (human)): 90%; kinase still bound, per cent of control (MAP4K1 (human)): 20%; kinase still bound, per cent of control (YES1 (human)): 18%
